In patent US20220289794A1, “SYNTHETIC ANTIMICROBIAL PEPTIDES” (priority 2019, published 2022):
Converted amounts (≈) assume the structure as drawn. Where two headings read alike, the source gives them in different places. Non-standard residues stand in square brackets, D forms with d. Residues, ends and D or L forms follow the SMILES beside them. Bip = N[C@@H](Cc1ccc(-c2ccccc2)cc1)C(=O)O; Dip = N[C@H](C(=O)O)C(c1ccccc1)c1ccccc1; 2Nal = N[C@@H](Cc1ccc2ccccc2c1)C(=O)O

What was measured:
[1] = test system: Escherichia coli (ATCC 25922)
[2] = test system: Methicillin-resistant Staphylococcus aureus MRSA (ATCC BAA-1556)
[3] = test system: Pseudomonas aeruginosa (ATCC 27883)
human red blood cells = test system: human red blood cells; design: unit not given beside the values

Row | Molecule | MIC E. coli ATCC 25922 [1] [mg/L] | MIC MRSA ATCC BAA-1556 [2] [mg/L] | MIC S. aureus ATCC 29213 (S. aureus ATCC 29213) [mg/L] | MIC P. aeruginosa ATCC 27883 [3] [mg/L] | also measured
1 | c[Arg-Arg-Arg-Arg-1meW-1meW-1meW-1meW] [IFX-041] | 25 | 6.2 | 3.1 | 25 | –
2 | c[Arg-arg-Arg-arg-PEG4-Trp-naI-naI] [IFX-051] | 128 | 32 | 32 | 128 | –
3 | N=C(N)NCCC[C@H]1NC(=O)[C@H](Cc2c[nH]c3ccccc23)NC(=O)[C@H](Cc2c[nH]c3ccccc23)NC(=O)[C@H](Cc2c[nH]c3ccccc23)NC(=O)[C@H](Cc2c[nH]c3ccccc23)NC(=O)[C@@H](CCCNC(=N)N)NC(=O)[C@@H](CCCNC(=N)N)NC(=O)[C@@H](CCCNC(=N)N)NC1=O [IFX-309] (cyclo([dR][dR][dR][dR]WWWW)) | – | – | – | – | MIC E. coli ATCC 25922 ([1]; ATCC 25922): 16 mg/L (≈ 11.7 µM)
4 | c[PEG2-Arg-Arg-Arg-Arg-PEG2-Trp-Trp-Trp-Trp] [IFX-047] | 100 | 50 | 50 | 50 | –
5 | N=C(N)NCCC[C@@H]1NC(=O)[C@H](CCCNC(=N)N)NC(=O)[C@H](CCCNC(=N)N)NC(=O)[C@H](Cc2ccc3ccccc3c2)NC(=O)[C@H](Cc2c[nH]c3ccccc23)NC(=O)[C@H](Cc2ccc3ccccc3c2)NC(=O)[C@H](CCCNC(=N)N)NC1=O [IFX-030, c[Arg-Arg-Arg-Arg-NaI-Trp-NaI]] (cyclo(RRRR[2Nal]W[2Nal])) | – | – | – | – | HC50 (human red blood cells): 430
6 | c[PEG2-Arg-Arg-Arg-Arg-PEG2-Dip-Dip-Dip] [IFX-049] | 128 | 8 | 8 | 64 | –
7 | N=C(N)NCCC[C@@H]1NC(=O)[C@H](CCCNC(=N)N)NC(=O)[C@H](CCCNC(=N)N)NC(=O)[C@H](Cc2ccc(-c3ccccc3)cc2)NC(=O)[C@H](Cc2ccc(-c3ccccc3)cc2)NC(=O)[C@H](Cc2ccc(-c3ccccc3)cc2)NC(=O)[C@H](CCCNC(=N)N)NC1=O [IFX-007, c[Arg-Arg-Arg-Arg-Bip-Bip-Bip]] (cyclo([Bip][Bip][Bip]RRRR)) | – | – | – | – | MIC E. coli ATCC 25922 ([1]; ATCC 25922): >100 mg/L; MIC MRSA ATCC BAA-1556 ([2]; ATCC BAA-1556): 6.2 mg/L (≈ 4.79 µM); MIC S. aureus ATCC 29213 (S. aureus ATCC 29213; ATCC 29213): 3.1 mg/L (≈ 2.39 µM); MIC P. aeruginosa ATCC 27883 ([3]; ATCC 27883): 25 mg/L (≈ 19.3 µM)
8 | N=C(N)NCCC[C@H](NC(=O)[C@H](CCCNC(=N)N)NC(=O)[C@H](CCCNC(=N)N)NC(=O)[C@@H](N)CCCNC(=N)N)C(=O)N[C@@H](CCCNC(=N)N)C(=O)N[C@H](C(=O)N[C@H](C(=O)N[C@H](C(=O)O)C(c1ccccc1)c1ccccc1)C(c1ccccc1)c1ccccc1)C(c1ccccc1)c1ccccc1 [IFX-012-1, NH2-Arg-Arg-Arg-Arg-Arg-Dip-Dip-Dip-OH] (H-RRRRR[Dip][Dip][Dip]-OH) | – | – | – | – | MIC E. coli ATCC 25922 ([1]; ATCC 25922): 25 mg/L (≈ 17 µM); MIC MRSA ATCC BAA-1556 ([2]; ATCC BAA-1556): 3.1 mg/L (≈ 2.11 µM); MIC S. aureus ATCC 29213 (S. aureus ATCC 29213; ATCC 29213): 3.1 mg/L (≈ 2.11 µM); MIC P. aeruginosa ATCC 27883 ([3]; ATCC 27883): 50 mg/L (≈ 34 µM)
9 | c[PEG1-Arg-Arg-Arg-Arg-PEG1-Dip-Dip-Dip] [IFX-048] | 64 | 16 | 16 | 64 | –
10 | N=C(N)NCCC[C@@H]1NC(=O)[C@H](CCCNC(=N)N)NC(=O)[C@H](Cc2c[nH]c3ccccc23)NC(=O)[C@H](C(c2ccccc2)c2ccccc2)NC(=O)[C@H](C(c2ccccc2)c2ccccc2)NC(=O)[C@H](CCCNC(=N)N)NC1=O [IFX-022, c[Arg-Arg-Arg-Dip-Dip-Trp]] (cyclo([Dip][Dip]WRRR)) | – | – | – | – | HC50 (human red blood cells): 215
11 | N=C(N)NCCC[C@@H]1NC(=O)[C@H](CCCNC(=N)N)NC(=O)[C@H](Cc2c[nH]c3ccccc23)NC(=O)[C@H](Cc2c[nH]c3ccccc23)NC(=O)[C@H](Cc2c[nH]c3ccccc23)NC(=O)[C@H](Cc2c[nH]c3ccccc23)NC(=O)[C@H](Cc2c[nH]c3ccccc23)NC(=O)[C@H](Cc2c[nH]c3ccccc23)NC(=O)[C@H](Cc2c[nH]c3ccccc23)NC(=O)[C@H](CCCNC(=N)N)NC1=O [IFX-306] (cyclo(RRRWWWWWWW)) | – | – | – | – | MIC P. aeruginosa ATCC 27883 ([3]; Table 19): 256 mg/L (≈ 144 µM)
12 | N=C(N)NCCC[C@@H]1NC(=O)[C@H](CCCNC(=N)N)NC(=O)[C@H](Cc2c[nH]c3ccccc23)NC(=O)[C@H](C(c2ccccc2)c2ccccc2)NC(=O)[C@H](C(c2ccccc2)c2ccccc2)NC(=O)[C@H](CCCNC(=N)N)NC(=O)[C@H](CCCNC(=N)N)NC1=O [IFX-028, c[Arg-Arg-Arg-Arg-Dip-Dip-Trp]] (cyclo([Dip][Dip]WRRRR)) | – | – | – | – | HC50 (human red blood cells): 370
13 | c[Arg-arg-PEG4-Arg-arg-Trp-naI-naI] [IFX-052] | 64 | 32 | 32 | 128 | –
